Data taken from patent US20020068274A1, “Novel method for assessing recoding in vitro and in vivo” (priority 2000, published 2002).

Key:
antizyme = conditions: cited from earlier work
transformed cell lines = conditions: cited from earlier work
[1] = molecular target: Ova257-264-specific B3Z hybridoma; assay: β-galactosidase-based T hybridoma stimulation assay; design: species or system mouse; conditions: L-Kb cells infected with rVV at 10 pfu/cell or pulsed with peptide 10^-9 M; FIGS. 4, 5
Description: FIG. 4. The TK frameshifting element directs expression and in vitro presentation of Ova257-264 that has been shifted to RF+1. The TK frameshifting element was inserted into the SphI site of NP/Ova257-264, shifiting all downstream NP/Ova257-264-encoding sequence, including Ova257-264, into RF+1 (TK-FS). Negative and positive control TK sequences (TK-NC, and TK-IF respectively) were also inserted. L-K^b cells were infected overnight with rVVs expressing these three constructs, along with a negative control VV (VV-NC). […]
Assays for epitope expression based upon use of the B3Z T hybridoma that produces β-galactosidase upon activation, have been described previously (Wherry, et al, J. Immunol 163, no. 7:3735, 1999). […] After overnight incubation, β-galactosidase production was assessed using the fluorogenic substrate methyl umbelliferone-βgalactoside as described by Sanderson and Shastri (Sanderson and N. Shastri, Internal Immunology 158:3227, 1997).
The frameshifting element derived from the mutant (TK-FS), as well as control sequences, in which the G run required for frameshifting was deleted (TK-NC), were tested following insertion into the SphI site of the NP/Ova257-264 construct (see FIG. 2) and recognition of Ova257-264 was monitored. […]

Question: What does the source list for `N=C(N)NCCCCN` [agmatine]?
Answer: polyamine levels (antizyme): lowered polyamine levels; antizyme expression (antizyme; via effect on +1 frameshifting): capable of stimulating antizyme expression; growth of transformed cell lines (transformed cell lines): growth inhibition of transformed cell lines

Question: For “Ova257-264: synthetic version of the H-2Kb-restricted epitope within ovalbumin (ESIINFEK; UniProt P01012 257-264, looked up, fragment)”, which “Kb/Ova257-264-specific recognition (β-galactosidase production by B3Z versus BWZ)” value [1] is on record?
Answer: The value was “strong specific response”.
